Publication PMC7450057, “Enhancing intracellular accumulation and target engagement of PROTACs with reversible covalent chemistry” (Nature Communications, 2020)
Several values for one entry are separate records, joined by “and”; a condition that tells them apart may be missing. Identical values can stand only once. Entries after “also recorded” stand apart in the source; their conditions may differ.

Legend:
NanoLuc-CRBN fusion = target: T1, NanoLuc-CRBN fusion (Homo sapiens, UniProt Q96SW2); experiment: NanoBRET CRBN in-cell target engagement assay; assay type: cell-based; settings: Figure 3h, replicates
T1 construct: host or cells: HEK 293T/17
T1 sequence (Q96SW2 whole entry, the tested form may be a part): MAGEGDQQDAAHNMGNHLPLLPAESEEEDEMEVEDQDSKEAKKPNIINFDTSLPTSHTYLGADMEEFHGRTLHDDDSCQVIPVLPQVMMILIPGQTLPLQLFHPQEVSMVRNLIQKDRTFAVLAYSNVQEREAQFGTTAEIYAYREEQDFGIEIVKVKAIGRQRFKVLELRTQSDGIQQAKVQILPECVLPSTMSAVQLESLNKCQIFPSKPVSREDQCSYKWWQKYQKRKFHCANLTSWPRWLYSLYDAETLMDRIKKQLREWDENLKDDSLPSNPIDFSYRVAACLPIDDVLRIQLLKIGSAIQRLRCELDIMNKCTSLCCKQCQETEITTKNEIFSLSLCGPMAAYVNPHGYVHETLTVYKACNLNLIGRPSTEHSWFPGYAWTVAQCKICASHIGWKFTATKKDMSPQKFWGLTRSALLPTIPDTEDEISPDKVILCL
T1 sequence (Q16531 whole entry partner, the tested form may be a part): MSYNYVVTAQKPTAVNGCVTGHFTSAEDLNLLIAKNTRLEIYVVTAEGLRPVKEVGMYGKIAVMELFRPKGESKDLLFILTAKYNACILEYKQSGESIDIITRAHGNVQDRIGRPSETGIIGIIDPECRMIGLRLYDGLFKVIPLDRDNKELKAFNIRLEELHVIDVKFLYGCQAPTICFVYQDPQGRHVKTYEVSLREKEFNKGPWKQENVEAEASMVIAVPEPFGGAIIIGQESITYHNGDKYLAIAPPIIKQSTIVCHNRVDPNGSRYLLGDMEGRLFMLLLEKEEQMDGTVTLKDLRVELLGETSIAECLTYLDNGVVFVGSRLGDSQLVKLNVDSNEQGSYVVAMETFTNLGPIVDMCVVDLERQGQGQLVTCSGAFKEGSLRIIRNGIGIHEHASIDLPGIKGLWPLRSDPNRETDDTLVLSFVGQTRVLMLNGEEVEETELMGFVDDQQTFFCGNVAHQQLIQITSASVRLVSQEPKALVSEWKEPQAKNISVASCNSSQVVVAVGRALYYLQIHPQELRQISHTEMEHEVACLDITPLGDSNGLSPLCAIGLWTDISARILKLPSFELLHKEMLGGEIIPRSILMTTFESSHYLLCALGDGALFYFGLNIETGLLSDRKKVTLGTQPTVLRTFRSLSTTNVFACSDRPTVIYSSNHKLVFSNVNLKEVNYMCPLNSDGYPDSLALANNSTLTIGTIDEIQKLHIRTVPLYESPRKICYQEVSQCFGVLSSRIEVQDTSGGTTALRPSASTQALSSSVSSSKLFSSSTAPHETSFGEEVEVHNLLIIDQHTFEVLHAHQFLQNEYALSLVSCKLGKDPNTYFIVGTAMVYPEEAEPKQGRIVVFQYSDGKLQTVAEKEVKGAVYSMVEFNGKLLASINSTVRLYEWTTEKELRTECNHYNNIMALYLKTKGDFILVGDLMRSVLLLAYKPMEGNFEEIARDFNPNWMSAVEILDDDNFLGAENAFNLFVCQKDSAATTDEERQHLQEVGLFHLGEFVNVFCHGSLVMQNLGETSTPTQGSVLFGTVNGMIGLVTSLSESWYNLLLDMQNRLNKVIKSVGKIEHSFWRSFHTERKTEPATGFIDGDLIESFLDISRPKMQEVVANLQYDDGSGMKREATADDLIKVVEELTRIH
Procedure: The target engagement assay for BTK or CRBN was from Promega (BTK kit, Cat. No. N2500; CRBN kit, Cat. No. CS1810C136) and was performed according to the manufacture’s instruction with some modifications. […] After 2 h incubation, the 3X Nano-Glo® Substrate with NanoLuc® extracellular inhibitor were added to cells and developed for 3 min at room temperature. BRET signals were collected using a BioTek SYNERGY H1 microplate reader equipped with a 450/80-nm BP filter for donor emission and a 610-nm LP filter for acceptor emission. BRET Ratio was calculated with the equation: [(Acceptor sample/Donor sample)–(Acceptor no tracer control/Donor no tracer control)] × 1000. The IC50 of the compound against its BTK or CRBN tracer was calculated using GraphPad Prism software.

[1] = tested on: truncated Cereblon protein; experiment: CRBN binding assay (fluorescence quenching); settings: for Fluorescence Intensity: Supplementary Figure 11, replicates
Procedure: The Kd values of compounds to CRBN were measured based on fluorescence quenching after compounds binding to CRBN. […] All the compounds were dissolved in DMSO (10 mM) as stock solutions. The final drug concentration is 100 nM. […] Fluorescence intensity values for control wells (assay buffer only) were subtracted from each data point prior to analysis. The Kd was calculated using GraphPad Prism with the following equation curve fit. I=I0−If×Kd/P0+Kd+If

BTK = BTK (Homo sapiens, UniProt Q06187); experiment: BTK degradation in MOLM-14 cells (western blot); assay type: cell-based; parameters: endogenous in cells; host or cells: MOLM-14
Sequence of BTK (Q06187 whole entry): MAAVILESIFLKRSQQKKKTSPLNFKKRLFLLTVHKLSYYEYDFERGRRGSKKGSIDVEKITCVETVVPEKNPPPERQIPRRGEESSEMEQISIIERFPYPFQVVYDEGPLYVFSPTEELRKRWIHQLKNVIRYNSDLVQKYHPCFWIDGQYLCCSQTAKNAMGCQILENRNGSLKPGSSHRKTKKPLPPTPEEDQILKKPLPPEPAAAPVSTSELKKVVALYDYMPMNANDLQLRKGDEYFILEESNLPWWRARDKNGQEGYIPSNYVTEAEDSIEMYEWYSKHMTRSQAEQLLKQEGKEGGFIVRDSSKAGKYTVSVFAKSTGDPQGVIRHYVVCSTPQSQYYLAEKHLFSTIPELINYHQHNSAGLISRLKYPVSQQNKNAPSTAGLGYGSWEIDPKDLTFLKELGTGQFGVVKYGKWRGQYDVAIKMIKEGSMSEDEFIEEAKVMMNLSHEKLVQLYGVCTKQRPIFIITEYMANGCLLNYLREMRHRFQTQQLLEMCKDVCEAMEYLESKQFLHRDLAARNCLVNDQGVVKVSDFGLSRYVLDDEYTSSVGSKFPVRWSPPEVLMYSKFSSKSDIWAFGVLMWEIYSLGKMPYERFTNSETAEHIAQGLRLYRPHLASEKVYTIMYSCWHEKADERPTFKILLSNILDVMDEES

SMILES: Nc1cccc2c1C(=O)N(C1CCC(=O)NC1=O)C2=O (stereo not shown) [Pomalidomide, pomalidomide, reference compound]
- NanoBRET(%) (NanoLuc-CRBN fusion; drug concentration 1.00E-05 M): 8.749% and 2.427%
- NanoBRET(%) (NanoLuc-CRBN fusion; drug concentration 1.60E-08 M): 79.9835% and 62.224% and 75.9099%
- NanoBRET(%) (NanoLuc-CRBN fusion; drug concentration 2.00E-06 M): 10.9943% and 16.7844%
- NanoBRET(%) (NanoLuc-CRBN fusion; drug concentration 3.20E-09 M): 86.2914% and 88.5513% and 84.0314%
- NanoBRET(%) (NanoLuc-CRBN fusion; drug concentration 4.00E-07 M): 54.7588% and 35.141% and 58.1892%
- NanoBRET(%) (NanoLuc-CRBN fusion; drug concentration 8.00E-08 M): 88.9359% and 73.8405% and 79.0012%
- Fluorescence Intensity ([1]; CRBN 0 μM): 9876.2 and 9503.2 and 9587.2
- Fluorescence Intensity ([1]; CRBN 0.734375 μM): 7603.2 and 7913.2 and 7829.2
- Fluorescence Intensity ([1]; CRBN 1.46875 μM): 6654.2 and 6940.2 and 6542.2
- Fluorescence Intensity ([1]; CRBN 2.9375 μM): 5927.2 and 5996.2 and 5981.2
- Fluorescence Intensity ([1]; CRBN 5.875 μM): 5201.2 and 5168.2 and 5152.2
- Fluorescence Intensity ([1]; CRBN 11.75 μM): 4654.2 and 4688.2 and 4502.2
- Fluorescence Intensity ([1]; CRBN 23.5 μM): 4529.2 and 4338.2 and 4613.2
- Kd ([1]; truncated Cereblon protein, fluorescence quenching, triplicates): 1400 nM
- Quantification anti-BTK / anti-β-actin (BTK level vs DMSO) (BTK; Figure 2d, DMSO = 100 (mean)): 81.7787
- BTK degradation (in words) (BTK; MOLM-14 cells, 200 nM, 24 h (Fig. 2d)): Neither RC-Ctrl, nor pomalidomide, nor a combination of both caused BTK degradation; also recorded: neither the RC-1 warhead, nor pomalidomide, nor a combination of both caused BTK degradation
